Numbered stars: 1 amine (or outer) side, 2 acyl side, 3 side chain; on linkers, the order of the positions; unused ones are H or OH. Side chains are listed from the residue outwards. Peptide text beside a SMILES is read from it. * marks the point of attachment. C18 diacid = O=C(O)CCCCCCCCCCCCCCCCC(=O)*; γGlu = O=C(O)[C@H](CCC(=O)[*:2])N[*:1]; AEEA = NCCOCCOCC(=O)O

The target of this assay is glucagon receptor (Homo sapiens, UniProt P47871). Put plainly: cell-based.
Chain of glucagon receptor (P47871 26-477): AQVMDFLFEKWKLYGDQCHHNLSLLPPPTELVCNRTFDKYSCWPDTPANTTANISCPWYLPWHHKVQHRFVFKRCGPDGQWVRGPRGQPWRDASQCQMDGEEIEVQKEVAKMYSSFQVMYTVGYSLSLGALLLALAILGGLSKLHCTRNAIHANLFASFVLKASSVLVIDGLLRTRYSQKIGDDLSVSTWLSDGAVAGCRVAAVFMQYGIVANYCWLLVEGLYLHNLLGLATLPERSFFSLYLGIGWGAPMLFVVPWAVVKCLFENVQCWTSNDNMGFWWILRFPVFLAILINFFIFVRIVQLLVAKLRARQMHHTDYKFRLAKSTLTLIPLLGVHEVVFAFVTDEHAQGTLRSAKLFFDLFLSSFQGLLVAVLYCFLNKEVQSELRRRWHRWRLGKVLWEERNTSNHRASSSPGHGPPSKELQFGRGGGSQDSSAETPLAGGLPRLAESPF
Consider `CC(C)C[C@H](NC(=O)[C@H](Cc1ccc(O)cc1)NC(=O)[C@H](CCCCN)NC(=O)[C@H](CO)NC(=O)[C@H](Cc1ccc(O)cc1)NC(=O)[C@H](CC(=O)O)NC(=O)[C@H](CO)NC(=O)[C@@H](NC(=O)[C@H](Cc1ccccc1)NC(=O)[C@@H](NC(=O)CNC(=O)[C@H](CCC(N)=O)NC(=O)[C@H](CO)NC(=O)[C@@H](N)Cc1c[nH]cn1)[C@@H](C)O)[C@@H](C)O)C(=O)N[C@@H](CC(=O)O)C(=O)N[C@@H](CCC(=O)O)C(=O)N[C@@H](CCCCN)C(=O)N[C@@H](C)C(=O)N[C@@H](C)C(=O)N[C@@H](CCC(N)=O)C(=O)N[C@@H](CCC(=O)O)C(=O)N[C@@H](Cc1ccccc1)C(=O)N[C@H](C(=O)N[C@@H](CCCCNC(=O)COCCOCCNC(=O)COCCOCCNC(=O)CC[C@H](NC(=O)CCCCCCCCCCCCCCCCC(=O)O)C(=O)O)C(=O)N[C@@H](Cc1c[nH]c2ccccc12)C(=O)N[C@@H](CC(C)C)C(=O)N[C@@H](CC(C)C)C(=O)N[C@@H](CC(N)=O)C(=O)N[C@H](C(N)=O)[C@@H](C)O)C(C)C` [Example 36, N^ε24-([2-[2-[2-[[2-[2-[2-[[(4S)-5-hydroxy-4-[(18-hydroxy-18-oxooctadecanoyl)amino]-5-oxopentanoyl]amino]ethoxy]ethoxy]acetyl]amino]ethoxy]ethoxy]acetyl])[Glu^16, Lys^17, Ala^18,Glu^21, Lys^24, Leu^27]Glucagon peptide amide] (H-HSQGTFTSDYSKYLDEKAAQEFVK([AEEA-AEEA-γGlu-C18 diacid])WLLNT-NH2; N-terminus assumed), for which it took 0.048 nM to reach a half-maximal effect (EC50). In other words, the picomolar range.
Consider `CC(C)C[C@H](NC(=O)[C@H](Cc1ccc(O)cc1)NC(=O)[C@H](CCCCN)NC(=O)[C@H](CO)NC(=O)[C@H](Cc1ccc(O)cc1)NC(=O)[C@H](CC(=O)O)NC(=O)[C@H](CO)NC(=O)[C@@H](NC(=O)[C@H](Cc1ccccc1)NC(=O)[C@@H](NC(=O)CNC(=O)[C@H](CCC(N)=O)NC(=O)[C@H](CO)NC(=O)[C@@H](N)Cc1c[nH]cn1)[C@@H](C)O)[C@@H](C)O)C(=O)N[C@@H](CC(=O)O)C(=O)N[C@@H](CO)C(=O)N[C@@H](CCCNC(=N)N)C(=O)N[C@@H](CCCNC(=N)N)C(=O)N[C@@H](C)C(=O)N[C@@H](CCC(N)=O)C(=O)N[C@@H](CCC(=O)O)C(=O)N[C@@H](Cc1ccccc1)C(=O)N[C@H](C(=O)N[C@@H](CCCCNC(=O)CC[C@H](NC(=O)CC[C@H](NC(=O)COCCOCCNC(=O)CC[C@H](NC(=O)CCCCCCCCCCCCCCCCC(=O)O)C(=O)O)C(=O)O)C(=O)O)C(=O)N[C@@H](Cc1c[nH]c2ccccc12)C(=O)N[C@@H](CC(C)C)C(=O)N[C@@H](CC(C)C)C(=O)N[C@@H](CO)C(=O)N[C@H](C(=O)O)[C@@H](C)O)C(C)C` [Example 91, N^ε24-[(4S)-4-carboxy-4-[[(4S)-4-carboxy-4-[[2-[2-[2-[[(4S)-4-carboxy-4-(17-carboxyheptadecanoylamino)butanoyl]amino]ethoxy]ethoxy]acetyl]amino]butanoyl]amino]butanoyl]-[Glu21,Lys24,Leu27,Ser28]-Glucagon], for which it took 0.053 nM to reach a half-maximal effect (EC50).
`CSCC[C@H](NC(=O)[C@H](CC(C)C)NC(=O)[C@H](Cc1c[nH]c2ccccc12)NC(=O)[C@H](CCC(N)=O)NC(=O)[C@@H](NC(=O)[C@H](Cc1ccccc1)NC(=O)[C@H](CC(=O)O)NC(=O)[C@H](CCCNC(=N)N)NC(=O)[C@H](C)NC(=O)[C@H](CCCNC(=N)N)NC(=O)[C@H](CCC(N)=O)NC(=O)[C@H](CCC(=O)O)NC(=O)[C@H](CC(=O)O)NC(=O)[C@H](CC(C)C)NC(=O)[C@H](Cc1ccc(O)cc1)NC(=O)[C@H](CCCCN)NC(=O)[C@H](CO)NC(=O)[C@H](Cc1ccc(O)cc1)NC(=O)[C@H](CC(=O)O)NC(=O)[C@H](CO)NC(=O)[C@@H](NC(=O)[C@H](Cc1ccccc1)NC(=O)[C@@H](NC(=O)CNC(=O)[C@H](CCC(N)=O)NC(=O)[C@H](CO)NC(=O)[C@@H](N)Cc1c[nH]cn1)[C@@H](C)O)[C@@H](C)O)C(C)C)C(=O)N[C@@H](CC(N)=O)C(=O)N[C@H](C(=O)N[C@@H](CCCCNC(=O)COCCOCCNC(=O)COCCOCCNC(=O)CC[C@H](NC(=O)CCCCCCCCCCCCCCCCC(=O)O)C(=O)O)C(N)=O)[C@@H](C)O` [Example 26, N^α ([Glu^16,Gln^17,Arg^20] Glucagonyl) N^ε-([2-[2-[2-[[2-[2-[2-[[(4S)-5-hydroxy-4-[(18-hydroxy-18-oxooctadecanoyl)amino]-5-oxopentanoyl]amino]ethoxy]ethoxy]acetyl]amino]ethoxy]ethoxy]acetyl]) Lysinyl amide] (H-HSQGTFTSDYSKYLDEQRARDFVQWLMNTK([AEEA-AEEA-γGlu-C18 diacid])-NH2; N-terminus assumed) yielded an EC50 of 0.192 nM.
Regarding `CC(C)C[C@H](NC(=O)[C@H](Cc1ccc(O)cc1)NC(=O)[C@H](CCCCN)NC(=O)[C@H](CO)NC(=O)[C@H](Cc1ccc(O)cc1)NC(=O)[C@H](CC(=O)O)NC(=O)[C@H](CO)NC(=O)[C@@H](NC(=O)[C@H](Cc1ccccc1)NC(=O)[C@@H](NC(=O)CNC(=O)[C@H](CCC(N)=O)NC(=O)[C@H](CO)NC(=O)[C@@H](N)Cc1c[nH]cn1)[C@@H](C)O)[C@@H](C)O)C(=O)N[C@@H](CC(=O)O)C(=O)N[C@@H](CO)C(=O)N[C@@H](CCCNC(=N)N)C(=O)N[C@@H](CCCNC(=N)N)C(=O)N[C@@H](C)C(=O)N[C@@H](CCC(=O)O)C(=O)N[C@@H](CC(=O)O)C(=O)N[C@@H](Cc1ccccc1)C(=O)N[C@H](C(=O)N[C@@H](CCCCNC(=O)CC[C@H](NC(=O)CC[C@H](NC(=O)COCCOCCNC(=O)COCCOCCNC(=O)CC[C@H](NC(=O)CCCCCCCCCCCCCCCCC(=O)O)C(=O)O)C(=O)O)C(=O)O)C(=O)N[C@@H](Cc1c[nH]c2ccccc12)C(=O)N[C@@H](CC(C)C)C(=O)N[C@@H](CC(C)C)C(=O)N[C@@H](CO)C(=O)N[C@H](C(=O)O)[C@@H](C)O)C(C)C` [Example 101, N^ε24-[(4S)-4-carboxy-4-[[(4S)-4-carboxy-4-[[2-[2-[2-[[2-[2-[2-[[(4S)-4-carboxy-4-(17-carboxyheptadecanoylamino)butanoyl]amino]ethoxy]ethoxy]acetyl]amino]ethoxy]ethoxy]acetyl]amino]butanoyl]amino]butanoyl]-[Glu^20,Lys^24,Leu^27,Ser^28]-Glucagon], a half-maximal effect (EC50) was put at 0.307 nM.

The record behind these values is patent US20160271263A1 (Novo Nordisk A/S, priority 2010, published 2016).
